Patent publication US20250195523A1, “ORGANIC MOLECULES FOR TREATING MYELIN PATHOLOGIES” (ICM (INSTITUT DU CERVEAU ET DE LA MOELLE ÉPINIÈRE), priority 2022, published 2025)

Legend:
[1] = test system: primary OPCs purified by magnetic cell sorting (MACS) from neonatal cortices; experiment: Primary OPC cultures purified by MACS, morphological complexity of OLs; type: cell-based, mice; conditions: OPCs treated for two days; compared to vehicle; FIG. 2B
Procedure: Brains were collected from PLPGFP and P4 Swiss mice […] and washed 3 times in PBS 1× (Invitrogen) with 1% of penicillin/streptomycin (Sigma). Cortex and corpus callosum were dissected and dissociated using neural tissue dissociation kit (T) (Miltenyi biotec) and with dissociator (gentleMACS Octo Dissociator, Miltenyi Biotec). OPC magnetic cell sorting was performed using anti-PDGFRα-coupled-beads (CD140a-PDGFRα MicroBead Kit, Miltenyi biotec) and MultiMACS Cell24 Separator Plus (Miltenyi biotec). Cells were collected in PBS and amplified for 2 days in a proliferating medium (with growth factors IGF, EGF, FGF, and PDGFα). Then, 40.000 cells were plated in 24 well plates adherent on coverslips, beforehand coated with poly-ornithine (Merck) diluted in 4 volumes of H2O and washed 3 times. Successively, for 2 days of proliferation and differentiation, medium was added with drugs at 250 nM, 500 nM and 750 nM, and their respective vehicles (DMSO, PBS). Cells were fixed in 4% PBS-paraformaldehyde (thermo fisher) for 10 minutes and washed 3 times in PBS-1×.
For coated-coverslip, blocking was performed in a moist chamber for 30 mn at room temperature (RT) in the blocking buffer (0.05% Triton X-100/10% normal goat serum/PBS). Then, coverslip were incubated for 30 mn with the following primary antibodies at RT. Rat anti-PDGFRα (1:250, BD Biosciences); Mouse anti-CNPase (mlgG1, 1:250; Millipore); Rabbit anti-Btub (1:1000; BABCO); Chicken anti-GFAP (1:500, Avelabs), Mouse anti-MBP (mlgG1, 1:150; Abcam); Rabbit anti-Sox10 (1:1000; Proteintech). Following 3 washing in 0.05% Triton X-100/PBS, coverslips were incubated 30 min at RT in dark with appropriate secondary antibodies conjugated with Alexa Fluor 488, 594 and 647 (1:1000; Molecular Probes or Thermo Fisher) and Dapi (1:5000 from working solution at 5 mg/ml; Life Technologies; D1306). Coverslips were washed 3 times in 0.05% Triton X-100/PBS and mounted with Fluoromount-G (SouthernBiotech).
To evaluate cell specific contribution of the drugs directly in OL differentiation and maturation, we used primary OPCs purified by magnetic cell sorting (MACS) from neonatal cortices (P4).

[2] = test system: focal demyelination in the corpus callosum of adult mice; experiment: Lysolecithin (LPC) induced focal de/remyelination model in adult mice, oral administration in drinking water; type: in vivo; conditions: 7 dpl, oral daily
Procedure: We weighted and anesthetized 4 months old RjOrl: SWISS mice (Janvier) with isoflurane (induced at 3%, and maintained at 1.2-1.6%). We induced focal demyelinating lesions by injecting 0.5 μl of a solution of 1% lysolecithin (LPC, Sigma in 0.9% NaCl solution) into the corpus callosum. To do so, a glass-capillary connected to a 10 μl Hamilton syringe was fixed and oriented through stereotaxic apparatus (coordinates: 1 mm lateral, 1.3 mm rostral to Bregma, 1.7 mm deep to brain surface). Animals were left to recover for a few hours in a warm chamber. […] Mice was perfused at 2% cold paraformaldehyde (thermos fisher) at 7 DPI.
For in-vivo cryosections (14-μm thick) of lesions, immunohistochemistry was performed after 30 mn drying at RT in a moist chamber. For myelin staining, ethanol treatment (100%) was performed for 10 mn at RT. Briefly, sections were permeabilized and blocked in a blocking buffer for 1 h (0.05% Triton X-100/10% normal goat serum/PBS). Then, cryosections were incubated overnight with the following primary antibodies at 4° C.: Mouse anti-APC (CC1 IgG2B; 1:100, calbiochem); Rabbit anti-Olig2 (1:500; Millipore); Mouse anti-Olig1 (IgG1; 1:500; NeuroMab); Rat anti-CD68 (1:500, AbD SEROTEC/BioRad); Rabbit anti-IBA1 (1:500, Wako Fujifilm); Mouse anti-MOOG (mlgG1, 1:20; Hybridoma). Then sections were washed 3 times in 0.05% Triton X-100/PBS and incubated 1 hour at RT with appropriate secondary antibodies conjugated with Alexa Fluor 488, 594 and 647 (1:1000; Molecular Probes or Thermo Fisher) and Dapi (1:5000 from working solution at 5 mg/ml; Life Technologies; D1306). Sections were washed 3 times in 0.05% Triton X-100/PBS and mounted with Fluoromount-G (SouthernBiotech).
We analyzed the lesions at 7 days post-lesion (7 dpl), when newly formed OLs have started to remyelinate the lesion in this model. The lesion area was identified by immunodetection of the high cellular density with DAPI staining, reduction of myelin with myelin oligodendrocyte glycoprotein (MOG), and abundance of microglia/macrophages with Iba1 and Cd68. We determined the effect of the drugs to promote oligodendrogenesis at the lesion site by combinatory immunodetection of Olig2, CC1 and Olig1, allowing to distinguish OPCs (Olig2^high/CC1^−/Olig1^nuclear-cyto cells) and three stages in OL differentiation: iOL1 (Olig2^high/CC1^high/Olig1^− cells), iOL2 (Olig2^high/CC1^high/Olig1^high-cyto cells), and mOL (Olig2^low/CC1^low/Olig1^low cells). […] Given the increase in OL differentiation by the drugs administration, without diminishing the pool of OPCs in the lesion area, we assessed for the proliferative status of OPCs, using Mcm2 and Ki67 proliferative markers, finding that both drugs promote a ˜2-fold increase in the density of proliferative OPCs (FIG. 4D) and in the proportion of proliferative OPCs (FIG. 4E).
To investigate the possible anti-inflammatory and pro-regenerative activity of these drugs, we performed staining for microglia/macrophages (Iba1+ cells), their active phagocytic status (Cd68+ cells), together with myelin (MOG) and cell density (DAPI) to identify the lesion area.

[3] = test system: neural progenitor cells (NPCs) obtained from the neonatal SVZ; experiment: Neonatal neural progenitor cell (neurosphere-derived) differentiation cultures, immunodetection of neural lineages; type: cell-based, mice; conditions: for neurogenesis (neuronal β-III-tubulin+ cells): 750 nM, compared to vehicle, FIG. 1D; for increase in iOLs (Sox10high cells): fold-change between drug treatment and vehicle, FIG. 1G
Procedure: NSC medium was prepared using up to 50 ml DMEM/F12 (Gibco), containing 666 μl glucose at 45% (Sigma), 0.5 ml penicillin/streptomycin (Sigma), 250 μl HEPES buffer at 1M (Gibco), 500 μl mL N2 supplement (Gibco), 1 mL B27 supplement (Gibco) and with growth factors Insulin 20 μg/ml (Sigma), EGF at 20 ng/ml (Peprotech), FGF 10 ng/ml (Peprotech). Brains were collected from Swiss mice at P0 and washed 3 times in PBS 1× (Invitrogen) with 1% of penicillin/streptomycin (Sigma). SVZ was dissected, transferred in fresh NSC medium and dissociated with pipette. Cells were amplified in a 25 ml flask (1 million of cells for 5 mL of medium), and maintained in a humidified atmosphere at 37° C. and 5% of CO2. Two-three days after, cells have grown as floating neurospheres and were collected by centrifugation at 500 g for 5 mn, dissociated before adding proliferating NSC medium. After 2 passages, 30.000 cells were plated in 24 well plates adherent on coverslips, beforehand coated with poly-ornithine (Merck) diluted in 4 volumes of H2O and washed 3 times. Drugs were added at different ranges of concentration (250 nM, 500 nM and 750 nM) and their respective vehicles (DMSO, or PBS). Medium (including drugs or vehicle) was changed each 2 days. After 4 days with proliferation factors, a differentiation medium without growth factors was added (with drugs or vehicle) for two days. Cells were washed once in PBS, fixed in 4% PBS-paraformaldehyde (thermofischer) for 10 minutes, and washed 3 times in PBS-1×.
To do so, we first used a culture of mix neural progenitor cells (NPCs) obtained from the neonatal SVZ (postnatal day 1, P1). […] We supplemented the drugs in both the proliferation and differentiation medium to analyze both their effect in neural cell type specification into the different neural lineages, and assess their ability to foster OPC differentiation. […]

[4] = test system: cerebellar slices explants; experiment: Ex vivo cerebellar organotypic explant culture, differentiation and myelination index; type: cell-based, mice; conditions: 750 nM, three days (7-10 DIV); for differentiation index (CC1+/Sox10+ OLs number): compared to negative controls, FIG. 3B
Procedure: We prepared cerebellar organotypic cultures from newborn (P0) mice. Cerebellar parasagittal slices (350 μm thick) were cut on a McIlwain tissue chopper and transferred onto 30 mm diameter Millipore culture inserts with […] (Millicell, Millipore). Slices were maintained in incubators at 37° C., under a humidified atmosphere containing 5% CO2 in six-well-plates containing 1 mL of slice culture media. This medium includes basal medium eagle (Invitrogen), 25% complete HBSS, 27 mM D-glucose, 100 U/mL penicillin/streptomycin, 1 mM glutamine (Sigma) and 5% horse serum (New Zealand origin, heat inactivated; Invitrogen). Medium was renewed every 2 days until 7 DIV, reaching the appropriate culture periods to study OPC differentiation and myelination. […] Slices were collected and fixed for 1 h at RT in PBS-4% paraformaldehyde, washed 3 times in PBS, and incubated 20 min at 4° C. in Clark's solution (95% ethanol/5% acetic acid), then washed 3 times in PBS 1×.
For ex-vivo cerebellar slices, slices were incubated 20 min at 4° C. in Clark's solution (95% ethanol/5% acetic acid), then washed 3 times in PBS 1×. Then, sections were incubated for 1 hour in a blocking buffer (0.2% Triton X-100/4% bovine serum albumin/4% donkey serum/PBS). Slices were incubated for 2 hours with the following primary antibodies at RT: Goat anti-Sox10 (1:100, R&D Systems); Rabbit anti-Calbindin (1:1000; Swant); Rat anti-MBP (1:200; Abcam); Mouse anti-CC1 (IgG2b; 1:100, Calbiochem). Then slices were washed 3 times in PBS/0.1% Triton X-100 and incubated in blocking buffer (dark, RT) for 2 hours with appropriate secondary antibodies conjugated with Alexa Fluor 488, 594 and 647 (1:1000; Molecular Probes or Thermo Fisher) and Dapi (1:5000 from working solution at 5 mg/ml; Life Technologies; D1306). Finally, slices were washed 3 times in PBS/0.1% Triton X-100 after incubation and mounted in Fluoromount-G (SouthernBiotech).
Then, we firstly performed a simpler and faster experimental model using cerebellar slices explants to identify the best drugs having pro-oligodendrogenenic and pro-myelinating activities in this ex vivo model, to be used in the in vivo analyses. Indeed, this model allowed us to better assess later aspects of OL maturation, myelination, and cytotoxicity in a richer cellular system, also containing immune cells (microglia/macrophages) that are known to influence oligodendrogenesis and (re) myelination. In this model, the start of myelination takes place after 7 days in culture (FIG. 3A). […] We then analyzed the effect in terms of OL numbers (CC1+/Sox10+ cells) and myelination (MBP labeling on CaBP+ Purkinje cell axons), by immunodetection of all four markers in the same sections. We calculated the differentiation index as the ratio of Sox10+ cells being CC1+, and the myelination index as the ratio CaBP+ axons being MBP+. […] On the one hand, we used the adult focal de/remyelination induced by intracerebral injection of […] (LPC) mimicking de/remyelination of MS, and on the other hand, the neonatal chronic hypoxia model, mimicking PTB hypomyelination.

C[C@@H]1C(=O)O[C@H]2C[C@@]34[C@H]5C[C@@H](C(C)(C)C)[C@]36[C@@H](OC(=O)[C@@H]6O)O[C@@]4(C(=O)O5)[C@]21O [Sm6, Ginkgolide A]
morphological complexity of OLs (PLP+ cells) [1]: strongly increased

Nc1nc(=O)c2c([nH]1)NCC(CNc1ccc(C(=O)N[C@@H](CCC(=O)O)C(=O)O)cc1)N2C=O.[Ca+2] (stereo partly shown) [Sm11, Calcium folinate]
number of oligodendroglial cells in the remyelinating area (Olig2+ cells) ([2]; sm5 at 5 μg per g, control 942.5±265.7, FIG. 4B): 1558±331 Olig2+ cells per mm^2
density of OPCs (Olig2high/CC1−/Olig1nuclear-cyto cells) in the lesion area ([2]; FIG. 4C): did not change
pro-regenerative microglia (Arg1+ cells) ([2]; FIG. 4I): corresponding increase
actively phagocytic microglia/macrophages (Cd68+ cells) ([2]; control 22.45%, FIG. 4H): 12.13%±5.14
surface occupied by Iba1+ microglia/macrophages in the lesion area ([2]; control 33.64%, FIG. 4G): 27.28%±4.16
increase of each stage of OL differentiation (iOL1, iOL2 & mOL) ([2]; versus control): ~2 fold
increase in the density of proliferative OPCs (Mcm2, Ki67 markers) ([2]; versus control, FIG. 4D): ~2 fold
increase in the proportion of proliferative OPCs ([2]; versus control, FIG. 4E): ~2 fold
morphological complexity of OLs (PLP+ cells) [1]: strongly increased
neurogenesis (neuronal β-III-tubulin+ cells) [3]: positive effect

C#C[C@]1(O)CC[C@H]2[C@@H]3CCC4=CC(=O)CC[C@@H]4[C@H]3CC[C@@]21CC [Sm7, Levonorgestrel]
increase in iOLs (Sox10high cells) [3]: increased tendency not reaching statistical significance

Cc1cc2c(cc1S(N)(=O)=O)S(=O)(=O)CCC2 [Sm1, Meticrane]
morphological complexity of OLs (PLP+ cells) [1]: strongly increased
differentiation index (CC1+/Sox10+ OLs number) [4]: increased differentiation index

S=C(NC1CCCCC1)N1CCC(c2cnc[nH]2)CC1 [Sm9, Thioperamide]
neurogenesis (neuronal β-III-tubulin+ cells) [3]: positive effect

CC(N)CCCC(C)(C)O (stereo not shown) [Sm2, Heptaminol]
morphological complexity of OLs (PLP+ cells) [1]: strongly increased
differentiation index (CC1+/Sox10+ OLs number) [4]: increased differentiation index
myelination process (MBP+/CaBP+), myelination index ([4]; compared to vehicle, FIG. 3C): robust increase

OC(CCN1CCCCC1)(c1ccccc1)C1CCCCC1 (stereo not shown) [Sm10, Trihexyphenidyl]
increase in iOLs (Sox10high cells) [3]: increased tendency not reaching statistical significance
